Data published in article PMC12040169 (PLOS Biology, 2025).

Test: in vitro
Settings: human, hela cells, % viability

SMILES | viability at 28.5 h, 10 µM | viability at 28.5 h, 10 µM (bulk resorufin, single well)
CC(C)c1ccc(S(=O)(=O)Nc2ccc(OC(F)F)cc2)cc1 [CBK044565] | 87.8% | –
CCOC(=O)CN1CCN(S(=O)(=O)c2cc(Cl)ccc2Cl)CC1 [CBK044628] | 91.1% | –
Cc1cc(C)nc(NS(=O)(=O)c2ccc(OC(F)(F)F)cc2)c1 [CBK044711] | 90.7% | –
CC(C)c1ccc(S(=O)(=O)NCCC#N)cc1 [CBK044722] | 105% | –
CCc1cc(Br)ccc1S(=O)(=O)NCCC#N [CBK044760] | 91.9% | –
O=S(=O)(Nc1cccc(Cl)c1)c1ccc(OC(F)(F)F)cc1 [CBK044769] | 109% | –
CC(=O)Nc1ccc(S(=O)(=O)N(C)c2ccccn2)cc1Cl [CBK044789] | 94.5% | –
CCC(C)(C)c1ccc(S(=O)(=O)NCc2ccc(C(F)(F)F)cc2)cc1 [CBK044820] | 107% | –
O=C(NCCc1cccs1)Nc1ccc(Cl)cc1C(F)(F)F [CBK044825] | 86.1% | –
O=S(=O)(Nc1ccc(Cl)c(Cl)c1)c1ccc(Cl)c(Cl)c1 [CBK044838] | 86.8% | –
N#CCNS(=O)(=O)c1ccc(OC(F)(F)F)cc1 [CBK044841] | 111% | –
O=C(NCCc1cccs1)Nc1ccccc1OC(F)(F)F [CBK044873] | 98% | –
Cc1cc(S(=O)(=O)Nc2n[nH]cc2C#N)c(C)cc1Cl [CBK044943] | 91.9% | –
CCOC(=O)CNS(=O)(=O)c1cccs1 [CBK044958] | 93.3% | –
Cc1ccc(CNC(=O)NCCc2cccs2)cc1 [CBK044960] | 88.5% | –
Cc1cc(S(=O)(=O)N2CCN(c3ccc(Cl)cc3)CC2)c(C)cc1Cl [CBK044965] | 114% | –
Cc1cc(C)cc(NC(=O)NCCc2cccs2)c1 [CBK044998] | 93.2% | –
O=C(NCCc1cccs1)Nc1cccc(SC(F)(F)F)c1 [CBK044999] | 95% | –
CCc1cccc(NC(=O)NCCC2=CCCCC2)c1 [CBK045009] | 108% | –
CC(C)c1ccc(S(=O)(=O)Nc2cc(F)c(F)c(F)c2)cc1 [CBK045028] | 104% | –
CCc1cc(Br)ccc1S(=O)(=O)NCCc1cccs1 [CBK045033] | 109% | –
O=C(Nc1ccccc1C(F)(F)F)N1CCN(c2ccccc2Cl)CC1 [CBK045081] | 79.7% | –
O=S(=O)(c1ccc(Cl)s1)N1CCN(c2ccccc2Cl)CC1 [CBK045098] | 98% | –

SMILES | viability at 28.5 h, 10 µM | viability at 28.5 h, 10 µM (bulk resorufin, single well)
CC(=O)Nc1ccc(S(=O)(=O)NCC#N)cc1Cl [CBK045102] | 97.3% | –
CCc1cc(Br)ccc1S(=O)(=O)NCc1cccc(F)c1 [CBK045114] | 89.1% | –
O=C(NCCc1ccccc1)NCCc1cccs1 [CBK045154] | 114% | –
O=S(=O)(c1cccs1)N1CCCN(Cc2nccs2)CC1 [CBK045172] | 119% | –
CCCCOc1ccc(NC(=O)NCCc2cccs2)cc1 [CBK045202] | 105% | –
O=S(=O)(c1ccc(F)c(Cl)c1)N1CCCN(Cc2ccccc2)CC1 [CBK045211] | 101% | –
O=C(Nc1ccc(OC(F)(F)F)cc1)N1CCC2(CC1)OCCO2 [CBK045235] | – | 91.7%
COC[C@@H]1CCCN1S(=O)(=O)c1cccs1 [CBK045239] | 96% | –
CCC(C)(C)c1ccc(S(=O)(=O)Nc2cc(Cl)ccc2O)cc1 [CBK045243] | 96% | –
O=C(NCCc1cccs1)Nc1ccc2c(c1)C(F)(F)OC(F)(F)O2 [CBK045255] | 98.2% | –
Cc1ccc(NS(=O)(=O)c2cccs2)cc1 [CBK045362] | 64% | –
O=C(NCCc1cccs1)NCc1cc(F)ccc1F [CBK045363] | 97.1% | –
CC(=O)c1ccc(S(=O)(=O)Nc2ccc(C)cc2)cc1 [CBK045380] | 108% | –
COc1ccc(S(=O)(=O)Nc2ccccc2C(=O)Nc2ccc(F)cc2)cc1OC [CBK045404] | 91.2% | –
CCN(CC)C(=O)c1ccccc1NS(=O)(=O)c1cc(Br)ccc1OC [CBK045422] | 89.6% | –
O=C(Nc1ccc(F)cc1)c1ccccc1NS(=O)(=O)c1ccc(C(F)(F)F)cc1[N+](=O)[O-] [CBK045439] | 108% | –
CCOC(=O)N1CCC(NS(=O)(=O)c2ccc(F)cc2)CC1 [CBK045455] | 95.1% | –
CCOC(=O)N1CCC(NS(=O)(=O)Cc2ccccc2)CC1 [CBK045457] | 90.7% | –
CCOC(=O)N1CCC(NS(=O)(=O)c2cc(Cl)sc2Cl)CC1 [CBK045462] | 86.7% | –
CCOC(=O)N1CCC(NS(=O)(=O)c2cc(Br)ccc2OC)CC1 [CBK045463] | 115% | –
CCOC(=O)N1CCC(NS(=O)(=O)c2ccc(OC)c(OC)c2)CC1 [CBK045464] | 104% | –
CCOC(=O)N1CCC(NS(=O)(=O)Cc2ccccc2[N+](=O)[O-])CC1 [CBK045467] | 97.3% | –
CCOC(=O)N1CCC(NS(=O)(=O)c2ccc(C)c([N+](=O)[O-])c2)CC1 [CBK045468] | 85.8% | –

SMILES | viability at 28.5 h, 10 µM | viability at 28.5 h, 10 µM (bulk resorufin, single well)
CCOC(=O)N1CCC(NS(=O)(=O)c2ccc(NC(C)=O)cc2)CC1 [CBK045470] | 97.8% | –
CCOC(=O)N1CCC(NS(=O)(=O)c2ccc(Cl)c(Cl)c2Cl)CC1 [CBK045471] | 96.4% | –
CCCCCC(=O)Nc1ccc(S(=O)(=O)Nc2nnc(CC)s2)cc1 [CBK045478] | 89% | –
Cc1ccc(S(=O)(=O)Nc2nnc(C)s2)cc1 [CBK045486] | 92.5% | –
O=S(=O)(Nc1nncs1)c1ccccc1 [CBK045489] | 86.7% | –
CC(=O)Nc1ccc(S(=O)(=O)Nc2nnc(C(C)(C)C)s2)cc1 [CBK045499] | 100% | –
CC(C)(C)c1nnc(NS(=O)(=O)c2ccc([N+](=O)[O-])cc2)s1 [CBK045500] | 93.3% | –
CC(=O)Nc1ccc(S(=O)(=O)Nc2nnc(Cc3ccc(Cl)cc3)s2)cc1 [CBK045515] | 97.9% | –
Cc1cc(C)c(S(=O)(=O)Nc2nnc(C(C)C)s2)c(C)c1 [CBK045516] | 102% | –
COc1ccc(S(=O)(=O)Nc2nnc(C(C)C)s2)cc1 [CBK045525] | 91.3% | –
COCc1nnc(NS(=O)(=O)c2ccc(Br)cc2)s1 [CBK045526] | 115% | –
Cc1ccc(S(=O)(=O)Nc2nnc(C(C)C)s2)cc1 [CBK045528] | 108% | –
O=S(=O)(Cc1ccccc1)Nc1nnc(C(F)(F)F)s1 [CBK045539] | 84.8% | –
CC(C)c1nnc(NS(=O)(=O)Cc2ccccc2)s1 [CBK045540] | 93% | –
COc1ccc(S(=O)(=O)Nc2nnc(C)s2)cc1 [CBK045543] | 114% | –
Cc1nc(NS(=O)(=O)/C=C/c2ccccc2)sc1C(=O)O [CBK045553] | 84.7% | –
Cc1nc(NS(=O)(=O)c2cc(F)c(Br)cc2F)sc1C(=O)O [CBK045556] | 96.5% | –
Cc1nc(NS(=O)(=O)c2cccc(Cl)c2C)sc1C(=O)O [CBK045561] | 110% | –
Cc1ccc(S(=O)(=O)Nc2nc(C)c(C(=O)O)s2)cc1[N+](=O)[O-] [CBK045565] | 91.3% | –
O=S(=O)(NCc1cccc(Cl)c1)c1csc2ccnc(N3CCNCC3)c12 [CBK045595C] | 88.6% | –
COc1ccc(N(C)C(=O)N[C@@H]2CC[C@@]3(c4ccc(OC)c(OC)c4)CCN(C)[C@H]3C2)cc1 [CBK045653T] | 112% | –
OCc1ncccc1OCCOC1CCCCO1 (stereo not drawn) [CBK045702] | 97.5% | –
COc1ccc([C@@]23CC[C@@H](NC(=O)Nc4cccc(Br)n4)C[C@@H]2N(C)CC3)cc1OC [CBK045703] | 85.4% | –

SMILES | viability at 28.5 h, 10 µM | viability at 28.5 h, 10 µM (bulk resorufin, single well)
COc1ccc([C@@]23CC[C@@H](NC(=O)Nc4ccc(Cl)nc4)C[C@@H]2N(C)CC3)cc1OC [CBK045764] | 91.9% | –
COc1ccc([C@@]23CCC(CC(=O)O)C[C@@H]2N(C)CC3)cc1OC (stereo partly drawn) [CBK045765A] | 107% | –
CCCCc1ccc(S(=O)(=O)n2ccc3c(N4CCNCC4)nccc32)cc1 [CBK045805C] | 100% | –
Cc1ccc(S(=O)(=O)Nc2nc(C)c(C(=O)N3CCN(C)CC3)s2)cc1 [CBK045812] | 88.3% | –
Cc1nc(NS(=O)(=O)c2cc(Cl)sc2Cl)sc1C(=O)N1CCN(C)CC1 [CBK045818] | 106% | –
Oc1cccnc1N1CCNCC1 [CBK045850] | 88.8% | –
Cc1oc(-c2cccc(Cl)c2)cc1C(=O)O [CBK045856] | 78% | –
COc1ccc([C@@]23CC[C@@H](NC(=O)Nc4cc(C)nc(C)c4)C[C@@H]2N(C)CC3)cc1OC [CBK045876] | 90.9% | –
CCCCCCN1CCN(c2nccn(CCOc3cc(F)c(F)cc3F)c2=O)CC1 [CBK045889C] | 113% | –
CCCC(=O)Nc1ccccc1OC1CCNCC1 [CBK045902T] | 98% | –
COc1cc(F)cc(OC2CCNCC2)c1NC(=O)C1CCC1 [CBK045912T] | 92.3% | –
Cc1nn(C)c(N2CCNCC2)c1NC(=O)C(C)c1ccccc1 (stereo not drawn) [CBK045929T] | 108% | –
Cc1noc(C)c1NC(=O)N(Cc1ccccc1C(F)(F)F)C1CCC(N)CC1 (stereo not drawn) [CBK045963C] | 103% | –
NCc1ccc(CN(Cc2cccc(Cl)c2)C(=O)NC(c2ccccc2)c2ccccc2)cc1 [CBK046087C] | 91.6% | –
NCc1ccc(CN(Cc2cnc(-c3ccccc3)[nH]2)C(=O)Nc2ccc3c(c2)OCO3)cc1 [CBK046158C] | 89% | –
CC(C)(C)c1ccccc1NC(=O)N(CCN)Cc1cc(F)cc(F)c1 [CBK046263C] | 98.6% | –
CC(=O)Nc1c(C#N)cnn1C [CBK046332] | 96% | –
COc1ccccc1-c1nc(C2CCCN2C(=O)CCCC(=O)O)n2ccccc12 (stereo not drawn) [CBK046600] | 90.3% | –
COc1ccccc1-c1nc(C2CCCN2C(=O)N[C@@H](C)c2ccccc2)n2ccccc12 (stereo partly drawn) [CBK046625] | 109% | –
CC(CC(=O)O)CC(=O)N1CCCC1c1nc(-c2ccc(F)cc2)c2ccccn12 (stereo not drawn) [CBK046626] | 99.4% | –
O=C(Nc1ccc2c(c1)CCO2)N1CCCC1c1nc(-c2ccccc2)c2ccccn12 (stereo not drawn) [CBK046733] | 117% | –
